In patent US11039614B2, “Solid herbicide compositions containing fluroxypyr-meptyl” (Dow AgroSciences LLC, priority 2015, dated 2021):

What was measured:
[1] = Differential scanning calorimetry (DSC), degree of crystallinity; format: physicochemical
Text: The coated herbicide powder and the water dispersible granule compositions described herein include coated, solid particles of fluroxypyr-meptyl that are largely or nearly completely in crystalline form. The degree of crystallinity of the solid particles of fluroxypyr-meptyl in these compositions (i.e., the weight percent of the fluroxypyr-meptyl that is in crystalline form) can be determined by differential scanning calorimetry (DSC) analysis and comparing the thermal properties of these compositions to a crystalline, non-coated sample of fluroxypyr-meptyl. In some embodiments, the coated particles of fluroxypyr-meptyl in these compositions have a degree of crystallinity that is at least about 70%, at least about 80%, at least about 90%, at least about 91%, at least about 92%, at least about 93%, at least about 94%, at least about 95%, at least about 96%, at least about 97%, at least about 98%, or at least about 99% and is reached within about one day, within about 2 days, within about 3 days, within about 4 days, within about 5 days, within about 6 days, or within about 7 days from the time of preparation of these solid compositions. […]

[2] = cited from earlier work

Question: Which results are given for CCCCCCC(C)OC(=O)COc1nc(F)c(Cl)c(N)c1Cl (centres unmarked) [Fluroxypyr-meptyl, 2-methylheptyl ester of 4-amino-3,5-dichloro-6-fluoro-2-pyridyloxyacetic acid]?
Answer: DSC Thermal Data: Heat Flow (absorbed) [1]: 70.01 J/g; solubility in water [2]: < 1 ppm
